How the values were obtained:
H1 receptor = target: T1, H1 receptor (Rattus norvegicus, UniProt P31390); experiment: [3H]-Pyrilamine radioligand binding assay, rat hypothalamus membrane homogenate; parameters: species or system Sprague Dawley rats; conditions: read-out: Ki ± SD H1
T1 construct: The prefrontal cortex, striatum and hypothalamus were homogenized in about 6 volumes of ice-cold buffer; from tissue; host or cells: rat hypothalamus membrane homogenate

D2 receptor [1] = target: T2, D2 receptor (Rattus norvegicus, UniProt P61169); experiment: [3H]-Spiperone radioligand binding assay, rat striatum membrane homogenate; parameters: species or system Sprague Dawley rats; conditions: read-out: Ki ± SD D2
T2 construct: The prefrontal cortex, striatum and hypothalamus were homogenized in about 6 volumes of ice-cold buffer; from tissue; host or cells: rat striatum membrane homogenate
T2 sequence (P61169 whole entry): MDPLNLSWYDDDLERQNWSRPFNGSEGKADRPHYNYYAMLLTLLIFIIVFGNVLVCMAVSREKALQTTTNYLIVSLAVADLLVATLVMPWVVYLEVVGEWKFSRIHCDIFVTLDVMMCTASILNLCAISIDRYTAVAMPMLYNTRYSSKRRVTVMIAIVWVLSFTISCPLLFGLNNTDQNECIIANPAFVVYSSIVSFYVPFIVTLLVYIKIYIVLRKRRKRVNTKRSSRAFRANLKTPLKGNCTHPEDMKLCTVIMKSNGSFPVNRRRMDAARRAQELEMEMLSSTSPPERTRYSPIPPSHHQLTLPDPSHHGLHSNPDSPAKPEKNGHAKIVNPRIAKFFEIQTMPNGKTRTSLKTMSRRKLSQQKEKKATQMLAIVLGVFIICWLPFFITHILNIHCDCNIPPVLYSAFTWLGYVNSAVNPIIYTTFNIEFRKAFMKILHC

5HT2A receptor = target: T3, 5HT2A receptor (Rattus norvegicus, UniProt P14842); experiment: [3H]-Ketanserine radioligand binding assay, rat prefrontal cortex membrane homogenate; parameters: species or system Sprague Dawley rats; conditions: for pKi ratio 5HT2A/D2: ratio of pKi at 5HT2A to pKi at D2, rat tissue homogenate; for Ki: read-out: Ki ± SD 5HT2A
T3 construct: The prefrontal cortex, striatum and hypothalamus were homogenized in about 6 volumes of ice-cold buffer; from tissue; host or cells: rat prefrontal cortex membrane homogenate
T3 sequence (P14842 whole entry): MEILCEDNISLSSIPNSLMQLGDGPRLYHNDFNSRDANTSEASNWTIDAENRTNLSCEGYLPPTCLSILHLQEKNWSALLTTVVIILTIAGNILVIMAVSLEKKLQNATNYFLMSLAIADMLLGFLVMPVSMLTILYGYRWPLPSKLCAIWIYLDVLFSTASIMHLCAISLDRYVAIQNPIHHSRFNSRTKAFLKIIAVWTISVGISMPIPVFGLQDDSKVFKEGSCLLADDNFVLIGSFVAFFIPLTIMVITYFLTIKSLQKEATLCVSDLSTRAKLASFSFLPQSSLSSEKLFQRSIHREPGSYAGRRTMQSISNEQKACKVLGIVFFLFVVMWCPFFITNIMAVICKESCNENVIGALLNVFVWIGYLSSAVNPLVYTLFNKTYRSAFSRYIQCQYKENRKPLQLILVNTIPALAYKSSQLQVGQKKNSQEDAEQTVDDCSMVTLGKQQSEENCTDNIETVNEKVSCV

[2] = parameters: method as in PMID 11488257, PMID 22103329; conditions: patients treated with these medications; cited from earlier work
D2 receptor [3] = conditions: read-out: Ki D2 receptor; cited from earlier work

T1 sequence (P31390 whole entry): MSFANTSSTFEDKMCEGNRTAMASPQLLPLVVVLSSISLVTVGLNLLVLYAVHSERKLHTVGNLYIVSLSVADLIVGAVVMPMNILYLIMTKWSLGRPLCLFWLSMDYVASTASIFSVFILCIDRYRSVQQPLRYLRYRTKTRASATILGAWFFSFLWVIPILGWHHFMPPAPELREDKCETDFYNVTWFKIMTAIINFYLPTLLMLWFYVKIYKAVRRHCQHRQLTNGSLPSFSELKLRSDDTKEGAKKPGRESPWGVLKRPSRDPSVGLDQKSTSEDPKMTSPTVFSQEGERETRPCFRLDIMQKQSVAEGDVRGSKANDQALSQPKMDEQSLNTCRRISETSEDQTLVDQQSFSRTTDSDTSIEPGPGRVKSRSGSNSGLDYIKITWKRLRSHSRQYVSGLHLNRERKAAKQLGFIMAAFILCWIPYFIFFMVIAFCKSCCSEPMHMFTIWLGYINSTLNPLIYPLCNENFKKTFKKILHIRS

CCc1cc2c(s1)Nc1ccccc1N=C2N1CCCN(C)CC1 [Compound 8b, 2-ethyl-4-(4′-methyl-1′,4′-diazepan-1′-yl)-10H-benzo[b]thieno[2,3-e] [1,4]diazepine]
Ki (H1 receptor): 0.0136 ± 0.00268 µM | Ki (D2 receptor [1]): 0.791 ± 0.0832 µM | pKi ratio 5HT2A/D2 (5HT2A receptor): 1.16 | Ki (5HT2A receptor): 0.0812 ± 0.00243 µM

Cc1cc2c(s1)Nc1ccccc1N=C2N1CCCN(C)CC1 [Compound 8a, 2-methyl-4-(4′-methyl-1′,4′-diazepan-1′-yl)-10H-benzo[b]thieno[2,3-e] [1,4]diazepine]
Ki (H1 receptor): 0.0335 ± 0.00739 µM | Ki (D2 receptor [1]): 3.94 ± 0.437 µM | Ki (5HT2A receptor): 0.787 ± 0.0298 µM

CCc1cc2c(s1)Nc1ccccc1N=C2N1CCN(C)CC1 [Compound 8c, 2-ethyl-4-(4′-methylpiperazin-1′-yl)-10Hbenzo[b]thieno[2,3-e][1,4]diazepine]
Ki (H1 receptor): 0.00195 ± 0.00033 µM | Ki (D2 receptor [1]): 0.0545 ± 0.0121 µM | pKi ratio 5HT2A/D2 (5HT2A receptor): 1.16 | Ki (5HT2A receptor): 0.0037 ± 0.00074 µM

Clc1ccc2c(c1)C(N1CCNCC1)=Nc1ccccc1O2 [amoxapine]
weight change in treated patients [2]: neither weight gain nor weight loss

CCN1CCC[C@H]1CNC(=O)c1c(OC)ccc(Br)c1OC [remoxipride]
Ki (D2 receptor [3]): 0.8 µM

CN1CCN(C2=Nc3ccccc3Oc3ccc(Cl)cc32)CC1 [loxapine]
weight change in treated patients [2]: neither weight gain nor weight loss
